Experimental data taken from PMC11277489, “Novel Piperazine Derivatives of Vindoline as Anticancer Agents” (International Journal of Molecular Sciences, 2024).

Legend:
CCRF-CEM = test: NCI60 one-dose screen (10 μM), Leukemia; assay type: cell-based; settings: Homo sapiens, 10 μM, Leukemia, read-out: Growth percent rate
HL-60(TB) = test: NCI60 one-dose screen (10 μM), Leukemia; assay type: cell-based; settings: Homo sapiens; 10 μM; HL-60(TB), Leukemia; read-out: Growth percent rate
K-562 = test: NCI60 one-dose screen (10 μM), Leukemia; assay type: cell-based; settings: Homo sapiens, K562; 10 μM; K-562, Leukemia; read-out: Growth percent rate
MOLT-4 = test: NCI60 one-dose screen (10 μM), Leukemia; assay type: cell-based, human; settings: Homo sapiens; 10 μM; MOLT-4, Leukemia; read-out: Growth percent rate
A549/ATCC = test: NCI60 one-dose screen (10 μM), Non-small Cell Lung Cancer; assay type: cell-based; settings: Homo sapiens; 10 μM; A549/ATCC, Non-small Cell Lung Cancer; read-out: Growth percent rate
EKVX = test: as above; assay type: cell-based; settings: Homo sapiens, 10 μM, Non-small Cell Lung Cancer, read-out: Growth percent rate
NCI-H23 = test: as above; assay type: cell-based; settings: Homo sapiens; 10 μM; NCI-H23, Non-small Cell Lung Cancer; read-out: Growth percent rate
NCI-H322M = test: as above; assay type: cell-based; settings: Homo sapiens, 10 μM, Non-small Cell Lung Cancer, read-out: Growth percent rate
NCI-H460 = test: as above; assay type: cell-based; settings: Homo sapiens; 10 μM; NCI-H460, Non-small Cell Lung Cancer; read-out: Growth percent rate
NCI-H522 = test: as above; assay type: cell-based; settings: Homo sapiens; 10 μM; NCI-H522, Non-small Cell Lung Cancer; read-out: Growth percent rate
COLO 205 = test: NCI60 one-dose screen (10 μM), Colon Cancer; assay type: cell-based, human; settings: Homo sapiens; 10 μM; COLO 205, Colon Cancer; read-out: Growth percent rate
HCC-2998 = test: NCI60 one-dose screen (10 μM), Colon Cancer; assay type: cell-based; settings: Homo sapiens; 10 μM; HCC-2998, Colon Cancer; read-out: Growth percent rate
HCT-116 = test: NCI60 one-dose screen (10 μM), Colon Cancer; assay type: cell-based; settings: Homo sapiens; 10 μM; HCT-116, Colon Cancer; read-out: Growth percent rate
HCT-15 = test: NCI60 one-dose screen (10 μM), Colon Cancer; assay type: cell-based; settings: Homo sapiens; 10 μM; HCT-15, Colon Cancer; read-out: Growth percent rate
HT29 = test: NCI60 one-dose screen (10 μM), Colon Cancer; assay type: cell-based; settings: Homo sapiens, HT-29; 10 μM; HT29, Colon Cancer; read-out: Growth percent rate
KM12 = test: NCI60 one-dose screen (10 μM), Colon Cancer; assay type: cell-based, human; settings: Homo sapiens; 10 μM; KM12, Colon Cancer; read-out: Growth percent rate
SW-620 = test: NCI60 one-dose screen (10 μM), Colon Cancer; assay type: cell-based; settings: Homo sapiens; 10 μM; SW-620, Colon Cancer; read-out: Growth percent rate
SF-268 = test: NCI60 one-dose screen (10 μM), CNS Cancer; assay type: cell-based; settings: Homo sapiens; 10 μM; SF-268, CNS Cancer; read-out: Growth percent rate
SF-295 = test: NCI60 one-dose screen (10 μM), CNS Cancer; assay type: cell-based; settings: Homo sapiens; 10 μM; SF-295, CNS Cancer; read-out: Growth percent rate
SF-539 = test: NCI60 one-dose screen (10 μM), CNS Cancer; assay type: cell-based, human; settings: Homo sapiens; 10 μM; SF-539, CNS Cancer; read-out: Growth percent rate
SNB-19 = test: NCI60 one-dose screen (10 μM), CNS Cancer; assay type: cell-based; settings: Homo sapiens; 10 μM; SNB-19, CNS Cancer; read-out: Growth percent rate
SNB-75 = test: NCI60 one-dose screen (10 μM), CNS Cancer; assay type: cell-based, human; settings: Homo sapiens; 10 μM; SNB-75, CNS Cancer; read-out: Growth percent rate
LOX IMVI = test: NCI60 one-dose screen (10 μM), Melanoma; assay type: cell-based, human; settings: Homo sapiens; 10 μM; LOX IMVI, Melanoma; read-out: Growth percent rate
MALME-3M = test: NCI60 one-dose screen (10 μM), Melanoma; assay type: cell-based; settings: Homo sapiens; 10 μM; MALME-3M, Melanoma; read-out: Growth percent rate
M14 = test: NCI60 one-dose screen (10 μM), Melanoma; assay type: cell-based; settings: Homo sapiens; 10 μM; M14, Melanoma; read-out: Growth percent rate
MDA-MB-435 = test: NCI60 one-dose screen (10 μM), Melanoma; assay type: cell-based; settings: Homo sapiens; 10 μM; MDA-MB-435, Melanoma; read-out: Growth percent rate
SK-MEL-2 = test: NCI60 one-dose screen (10 μM), Melanoma; assay type: cell-based; settings: Homo sapiens; 10 μM; SK-MEL-2, Melanoma; read-out: Growth percent rate
SK-MEL-28 = test: NCI60 one-dose screen (10 μM), Melanoma; assay type: cell-based; settings: Homo sapiens; 10 μM; SK-MEL-28, Melanoma; read-out: Growth percent rate
SK-MEL-5 = test: NCI60 one-dose screen (10 μM), Melanoma; assay type: cell-based, human; settings: Homo sapiens; 10 μM; SK-MEL-5, Melanoma; read-out: Growth percent rate
UACC-257 = test: NCI60 one-dose screen (10 μM), Melanoma; assay type: cell-based; settings: Homo sapiens; 10 μM; UACC-257, Melanoma; read-out: Growth percent rate
IGROV1 = test: NCI60 one-dose screen (10 μM), Ovarian Cancer; assay type: cell-based; settings: Homo sapiens, IGROV-1; 10 μM; IGROV1, Ovarian Cancer; read-out: Growth percent rate
OVCAR-3 = test: NCI60 one-dose screen (10 μM), Ovarian Cancer; assay type: cell-based; settings: Homo sapiens; 10 μM; OVCAR-3, Ovarian Cancer; read-out: Growth percent rate
OVCAR-4 = test: NCI60 one-dose screen (10 μM), Ovarian Cancer; assay type: cell-based; settings: Homo sapiens; 10 μM; OVCAR-4, Ovarian Cancer; read-out: Growth percent rate
OVCAR-8 = test: NCI60 one-dose screen (10 μM), Ovarian Cancer; assay type: cell-based; settings: Homo sapiens; 10 μM; OVCAR-8, Ovarian Cancer; read-out: Growth percent rate
786–0 = test: NCI60 one-dose screen (10 μM), Renal Cancer; assay type: cell-based; settings: Homo sapiens; 10 μM; 786-0, Renal Cancer; read-out: Growth percent rate
ACHN = test: NCI60 one-dose screen (10 μM), Renal Cancer; assay type: cell-based; settings: Homo sapiens, 10 μM, Renal Cancer, read-out: Growth percent rate
CAKI-1 = test: NCI60 one-dose screen (10 μM), Renal Cancer; assay type: cell-based; settings: Homo sapiens; 10 μM; CAKI-1, Renal Cancer; read-out: Growth percent rate
RXF 393 = test: NCI60 one-dose screen (10 μM), Renal Cancer; assay type: cell-based, human; settings: Homo sapiens; 10 μM; RXF 393, Renal Cancer; read-out: Growth percent rate
SN12C = test: NCI60 one-dose screen (10 μM), Renal Cancer; assay type: cell-based; settings: Homo sapiens, 10 μM, Renal Cancer, read-out: Growth percent rate
DU-145 = test: NCI60 one-dose screen (10 μM), Prostate Cancer; assay type: cell-based; settings: Homo sapiens; 10 μM; DU-145, Prostate Cancer; read-out: Growth percent rate
MCF7 = test: NCI60 one-dose screen (10 μM), Breast Cancer; assay type: cell-based; settings: Homo sapiens; 10 μM; MCF7, Breast Cancer; read-out: Growth percent rate
[1] = test system: 60 human tumor cell lines (NCI60); test: NCI60 one-dose screen (10 μM), whole panel; assay type: cell-based; settings: 10 μM; mean over 60 human cancer cell lines; read-out: Growth percent rate, Mean

With `CCC12C=CCN3CCC4(c5cc(NC(=O)CN6CCN(C)CC6)c(OC)cc5N(C)C4C(O)(C(=O)OC)C1OC(C)=O)C32` (stereo not drawn) [Compound 16] the activity at 10 µM (CCRF-CEM) was 112%, the activity at 10 µM (HL-60(TB)) was 97.5% and the activity at 10 µM (K-562) was 85.8%. For the same molecule, the activity at 10 µM (MOLT-4) was 108%, the activity at 10 µM (A549/ATCC) was 97.1% and the activity at 10 µM (EKVX) was 94.8%. It also gave an activity at 10 µM (NCI-H23) of 103%, an activity at 10 µM (NCI-H322M) of 101% and an activity at 10 µM (NCI-H460) of 142%. The activity at 10 µM (NCI-H522) was 90.2%, the activity at 10 µM (COLO 205) was 105% and the activity at 10 µM (HCC-2998) was 106%. It also gave an activity at 10 µM (HCT-116) of 101%, an activity at 10 µM (HCT-15) of 101% and an activity at 10 µM (HT29) of 104%. For the same molecule, the activity at 10 µM (KM12) was 112%, the activity at 10 µM (SW-620) was 124% and the activity at 10 µM (SF-268) was 116%. For the same molecule, the activity at 10 µM (SF-295) was 98.8%, the activity at 10 µM (SF-539) was 101% and the activity at 10 µM (SNB-19) was 105%. It also gave an activity at 10 µM (SNB-75) of 95.6%, an activity at 10 µM (LOX IMVI) of 95.2% and an activity at 10 µM (MALME-3M) of 97.5%. The activity at 10 µM (M14) was 101%, the activity at 10 µM (MDA-MB-435) was 114% and the activity at 10 µM (SK-MEL-2) was 108%. The activity at 10 µM (SK-MEL-28) was 111%, the activity at 10 µM (SK-MEL-5) was 102% and the activity at 10 µM (UACC-257) was -7.95%. For the same molecule, the activity at 10 µM (IGROV1) was 112%, the activity at 10 µM (OVCAR-3) was 138% and the activity at 10 µM (OVCAR-4) was 109%. For the same molecule, the activity at 10 µM (OVCAR-8) was 97.8%, the activity at 10 µM (786–0) was 106% and the activity at 10 µM (ACHN) was 104%. For the same molecule, the activity at 10 µM (CAKI-1) was 89.5%, the activity at 10 µM (RXF 393) was 102% and the activity at 10 µM (SN12C) was 109%. It also gave an activity at 10 µM (DU-145) of 115%, an activity at 10 µM (MCF7) of 84.3% and an activity at 10 µM [1] of 103%.
